Measurements from ChEMBL document CHEMBL4610109, “Targeting Orthosteric and Allosteric Pockets of Aromatase via Dual-Mode Novel Azole Inhibitors” (ACS Med Chem Lett, 2020).
pIC50: −log10 of the molar value.

How the values were obtained:
MCF7 = assay: Growth inhibition of human ER-positive MCF7 cells incubated for 72 hrs by cell counter method; assay type: functional; conditions: MCF7, 72 h
MDA-MB-231 = assay: Growth inhibition of human ER-negative MDA-MB-231 cells incubated for 72 hrs by cell counter method; assay type: functional; conditions: MDA-MB-231, 72 h
Aromatase = target: T1, Aromatase (Homo sapiens, UniProt P11511); assay: Inhibition of recombinant human aromatase preincubated for 10 mins followed by substrate and beta-NADP+ addition and measured for 60 mins by fluorescence based assay
T1 sequence (P11511 whole entry): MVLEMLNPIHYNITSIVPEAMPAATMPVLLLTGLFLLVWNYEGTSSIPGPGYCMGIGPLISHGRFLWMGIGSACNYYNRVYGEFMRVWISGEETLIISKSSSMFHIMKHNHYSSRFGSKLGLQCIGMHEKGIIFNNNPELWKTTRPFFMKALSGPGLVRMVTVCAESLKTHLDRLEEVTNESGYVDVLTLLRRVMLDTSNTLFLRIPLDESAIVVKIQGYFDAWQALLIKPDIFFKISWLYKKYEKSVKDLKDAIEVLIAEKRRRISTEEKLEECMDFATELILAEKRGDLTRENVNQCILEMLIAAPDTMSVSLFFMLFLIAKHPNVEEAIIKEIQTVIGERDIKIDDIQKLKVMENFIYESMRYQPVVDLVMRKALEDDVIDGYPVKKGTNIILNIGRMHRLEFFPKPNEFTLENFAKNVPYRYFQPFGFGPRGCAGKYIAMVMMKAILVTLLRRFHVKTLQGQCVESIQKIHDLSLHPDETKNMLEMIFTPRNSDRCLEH

| pIC50 (Aromatase) | Compound | GI50 (MCF7) | GI50 (MDA-MB-231) |
| --- | --- | --- | --- |
|  | O=c1c2ccccc2oc2cccc(Cn3ccnc3)c12 | 59 µM | 44.3 µM |
|  | O=c1c2ccccc2oc2c(Cn3ccnc3)cccc12 | 69.1 µM | 58.3 µM |
|  | O=c1c2ccccc2oc2cc(Cn3ccnc3)ccc12 | 19.9 µM | 30.4 µM |
| 6.11 | CCC#CCOc1ccc2c(=O)c3ccc(Cn4ccnc4)cc3oc2c1 | > 100 µM | > 100 µM |
| 5.26 | CCC#CCOc1cc(Cn2ccnc2)c2oc3ccccc3c(=O)c2c1 | 52.3 µM | 21.1 µM |
| 5.55 | CCC#CCOc1cc(Cn2ccnc2)c2c(=O)c3ccccc3oc2c1 | 6.3 µM | 17.5 µM |
|  | N#Cc1ccc(C(c2ccc(C#N)cc2)n2cncn2)cc1 [LETROZOLE] |  | 34 µM |
